PubChem BioAssay AID602255 (Broad Institute, 2012)
Activity calls are given as the source filed them.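 How the source made its calls: active means falling polarization with an AC50 at most ten times the sample's highest valid dose; inconclusive means flat curve at 30 to 70% inhibition, or poor fit; inactive means rising signal, flat weak curves, or AC50 past limit.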

Target: Golgi-associated PDZ and coiled-coil motif-containing protein (Homo sapiens) (UniProt Q9HD26)
Test: disruptors of CAL PDZ reporter peptide binding – biochemical, fluorescence polarization, untagged CAL PDZ, dry powder, dose response (AID 602255)
Conditions: CAL PDZ / TMR peptide fluorescence polarization, 1 h; for activity change, negative = inhibition: at 35 µM (top of the series)

COc1ccc(S(=O)(=O)Nc2cc(SCC(=O)O)c(O)c3ccccc23)cc1
activity change, negative = inhibition: inactive

O=S(=O)(Nc1cc(Sc2ccccc2)c(O)c2ccccc12)c1ccc(Cl)cc1
activity change, negative = inhibition: inactive

O=C(O)CSc1cc(NS(=O)(=O)c2ccc(Br)cc2)c2ccccc2c1O
AC50: > 35 µM (inactive)

O=S(=O)(Nc1ccc(O)c2ccccc12)c1ccccc1
activity change, negative = inhibition: inactive
